Consider 1 molecule from patent publication US20260053931A1, “MDM2 TARGETING PROTACS” (THE WISTAR INSTITUTE OF ANATOMY AND BIOLOGY, priority 2023, published 2026).

One assay has as its system DE1069. In words: Cell death of other cancer cell lines: DE1069. Type of assay: cell-based. The note with it: DE1069, Sarcoma, Mouse. The procedure: (§1) The PROTACs prepared herein were tested for their use in other cancer cell lines to determine activity in multiple different types of cancer.
The subject of the next assay is SCC-25. The assay can be described thus: Cell death of other cancer cell lines: SCC-25. Type of assay: cell-based. The note with it: Homo sapiens; SCC-25, Head & Neck. How it is done:
as §1

Assay [1] concerns TNBC patient-derived explants. In words: Patient-derived TNBC explants. Format: cell-based, human. The procedure: FIGS. 27A-27E show TP53 mutant TNBC patient-derived explants undergo apoptosis following treatment with the MDM2-PROTAC YX-02-030. A. TP53 sequenced in five fresh TNBC patient samples and used in explant and 3D mammosphere cultures. B-C. TNBC patient-derived explants were treated with the compounds indicated and Western blotting (B) and immunohistochemistry (IHC) of FFPE sections for cleaved Caspase-3 (C, n=3 paired patient samples) were performed. Representative images of H&E and cleaved Caspase-3 (CC3) IHC shown, including normal breast epithelium treated with MDM2-PROTAC YX-02-030; scale bar 300 m. D-E. Mammosphere cultures were established from TNBC patient samples, treated with the indicated compounds, and live-cell detection of Caspase-3/7 activity (D, quadruplicate) and mammosphere survival/ATP production (E, quadruplicate) were measured.
To assess the effects of YX-02-030 on TNBC patient samples, fresh, surgically-resected tumor from five TNBC patients was obtained, and 80% were from Black/African American patients (FIG. 26). Each tumor had TP53 missense mutations with two having the same hot-spot (R248Q) p53 mutation and one that had 3 TP53 mutations (FIG. 27A). […]

Another assay deals with MDA-MB-231 mammospheres. In words: Area of formed mammospheres, MDA-MB-231. Type of assay: cell-based, human. The settings on record: MDA-MB-231, 3-fold lower concentration than the MDM2 inhibitors, 72 hr. The procedure:
(§2) FIGS. 21A-21E show the apoptosis induction of p53-inactivated TNBC cells in 2D and 3D cultures by the MDM2-PROTAC YX-02-030. A-B. Colony formation assays (A. Triplicate, 12 days) and mammosphere formation (B. Triplicate 72 hrs) of MDA-MB-231 and MDA-MB-436 cells in the presence of the indicated compounds or DMSO control (−); representative pictures shown. C-E. Formed mammospheres of MDA-MB-231 and MDA-MB-436 cells were treated with the compounds indicated or DMSO control (−), and area (C. n=10 mammospheres, relative to pre-treatment area, 72 hr), real-time imaging (IncuCyte) and quantification of Caspase-3/7 activity (D. n=4-5 wells/compound), and survival/ATP assays (E. Quadruplicate, 72 hr) were performed; representative images shown; scale bar 300 m. Mean±SEM (A-C and E). For A, *P<0.0001 and **P<0.0001, comparing 1 M and 2 M PROTAC, respectively, to control compounds and DMSO vehicle control. For B, *P<0.0046, **P<0.0001, and ***P<0.0001, comparing 0.5 M, 1 M, and 2 M PROTAC, respectively, to control compounds and DMSO vehicle control. For C, *P<0.0001 and **P<0.0001, comparing 2 M and 4 M/6 M PROTAC, respectively, to control compounds and DMSO vehicle control. […]
(§3) These were then evaluated in 3D culture as to when the YX-02-030 was effective at preventing TNBC cell mammosphere formation and eliminating already formed mammospheres. […]

Assay [2] concerns Mdm2-/-p53-/- sarcoma cells. In words: Murine Mdm2-/-p53-/- sarcoma cells, MTT. Format: cell-based, mouse. The settings on record: MTT assay, 48 hrs. The source says: A-B. Murine Mdm2+/+p53-null sarcoma cells treated with Mdm2 PROTAC (YX-02-030), control YX-02-023 (−), or vehicle (DMSO). A. Western blots after 24 hrs (cleaved caspase 3, CC3. Mdm2^−/−p53^−/− fibroblasts were a control for the Western blot). B. Dose response curve (MTT assay, 48 hrs). C. Dose response curves of murine Mdm2^−/−p53^−/− sarcoma cells treated with Mdm2 PROTAC (YX-02-030), negative controls (−), a Bcl2/Bclx/Bclw inhibitor (+), or vehicle control (MTT assay, quadruplicate, 48 hrs- MTT assay, B-C graphed relative to DMSO).
A general note: Formazan colour is commonly taken as a measure of viable cells.

The next assay addresses Mdm2 (Homo sapiens, UniProt Q00987). In words: Western blot of TNBC cells treated with PROTAC. Type of assay: cell-based. Also on record: endogenous in cells; MDA-MB-231 (A9). From the text:
A. Chemical structure of MDM2-PROTAC. B-C. MDM2:p53 and MDM2:VHL-HIF1α peptide binding inhibition determined by homogeneous time-resolved fluorescence (HTRF, triplicate, mean±SEM, B) and surface plasmon resonance (SPR, triplicate, mean±SD, C. Binding assays by the indicated compounds. Graphical data is representative of 3 separate experiments. D. AlphaScreen of ternary complex using GST-MDM2 and HIS-VHL; mean±SD. E-F. Western blot analysis for the proteins indicated following a dose-titration (E, 16 hr) and time course (F, 6 μM) with the PROTAC or vehicle control (DMSO, −) in MDA-MB-231 (p53-mutant) and MDA-MB-436 (p53-delete) cells. G-K. Western blot analysis for the proteins indicated following treatment with the MDM2-PROTAC and/or the neddylation activating enzyme inhibitor MLN4924 G.
PROTACs work by forming a ternary complex consisting of the target protein, the PROTAC, and the recruited E3 ubiquitin ligase-E2 complex, causing ubiquitination of the target protein, marking it for 26S proteasome-mediated degradation (Nalawansha & Crews, 2020). FIG. 19D confirms that the PROTAC forms a […] complex. […] Similarly, when the proteasome was inhibited with MG132, MDM2 protein levels were maintained despite YX-02-030 exposure (FIG. 19H). Therefore, YX-02-030 targets MDM2 protein for 26S proteasome-mediated degradation in TNBC cells and this requires the ubiquitin cascade.
For orientation: In western blotting, separated proteins are transferred to a membrane and probed.

The test system of assay [3] is MDA-MB-231 and MDA-MB-436 cells. In words: Mammosphere formation in 3D culture. Format: cell-based, human. The note with it: each concentration tested, 72 hrs, compared to MDM2 inhibitors and vehicle. The procedure:
as §2, §3

Assay [4] concerns p53-null mouse sarcoma cells. In words: Murine Mdm2+/+ p53-null sarcoma cells, Western blot and MTT. Format: cell-based.

Chain of Mdm2 (Q00987 whole entry): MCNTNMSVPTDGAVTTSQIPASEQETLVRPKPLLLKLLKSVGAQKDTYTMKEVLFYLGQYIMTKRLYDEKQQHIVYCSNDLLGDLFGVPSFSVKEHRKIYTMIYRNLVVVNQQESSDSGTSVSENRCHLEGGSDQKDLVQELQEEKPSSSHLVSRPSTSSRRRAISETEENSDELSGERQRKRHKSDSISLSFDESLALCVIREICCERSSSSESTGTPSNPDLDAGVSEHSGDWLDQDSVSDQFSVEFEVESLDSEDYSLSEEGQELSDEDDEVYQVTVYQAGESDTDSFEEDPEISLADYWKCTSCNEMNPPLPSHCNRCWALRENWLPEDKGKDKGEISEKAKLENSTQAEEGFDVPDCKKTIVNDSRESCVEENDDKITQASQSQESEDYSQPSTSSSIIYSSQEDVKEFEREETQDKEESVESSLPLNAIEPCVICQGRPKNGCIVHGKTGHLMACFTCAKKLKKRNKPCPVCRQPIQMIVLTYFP

As a reminder, the IC50 is the concentration needed to halve the response being measured. Lower therefore signals greater potency. As for `CCOc1cc(C(C)(C)C)ccc1C1=N[C@](C)(c2ccc(Cl)cc2)[C@](C)(c2ccc(Cl)cc2)N1C(=O)N1CCN(CC(=O)NCCOCCOCCOCC(=O)N[C@H](C(=O)N2C[C@H](O)C[C@H]2C(=O)NCc2ccc(-c3scnc3C)cc2)C(C)(C)C)CC1` (racemic) [YX-02-030], the IC50 with DE1069 came to 6.1 µM; in the assay on SCC-25 it was 3.1 µM. Moreover, the “apoptosis markers by Western blot” value in assay [1] (explants) is “increased levels of cleaved Caspase-3 and cleaved PARP”. In assay [1] (within 4 days of treatment), the “MDM2 protein in patient tumors” value is “MDM2 protein was lost”. Further, the “reduction of mammosphere area” value in the assay with MDA-MB-231 mammospheres is reported as 49.5%. Moreover, the “response of Mdm2-/-p53-/- sarcoma cells” value in assay [2] is given as “not responsive”. For the same molecule, at Mdm2 (MDA-MB-231 (mutated p53) and MDA-MB-436 (deleted p53), dose titration 16 hr, time course 6 μM), the MDM2 protein level entry was “loss of MDM2 protein”. Also, at Mdm2 (Western blot), the VHL protein level entry was “not degraded”. Also, the mammosphere formation entry in assay [3] was “significantly fewer mammospheres formed”. Also, the “p73 and apoptosis (cleaved caspase 3)” value in assay [4] (Western blots after 24 hrs) is “stabilized p73 and induced apoptosis”. Besides, in assay [4] (increasing concentrations, MTT assay, 48 hrs), the “killing of p53-null sarcoma cells” value is listed as “killed p53-null sarcoma cells”.
